Results on 23 molecules are retold here after patent US20240217957A1, “HETEROCYCLIC COMPOUND AND USE THEREOF” (TAKEDA PHARMACEUTICAL COMPANY LIMITED, priority 2022, published 2024).

The target in the test is T1, human OX2 receptor (Homo sapiens, UniProt O43614).
T1 construct: expressed in transfected cells
T1 sequence (O43614 1-444): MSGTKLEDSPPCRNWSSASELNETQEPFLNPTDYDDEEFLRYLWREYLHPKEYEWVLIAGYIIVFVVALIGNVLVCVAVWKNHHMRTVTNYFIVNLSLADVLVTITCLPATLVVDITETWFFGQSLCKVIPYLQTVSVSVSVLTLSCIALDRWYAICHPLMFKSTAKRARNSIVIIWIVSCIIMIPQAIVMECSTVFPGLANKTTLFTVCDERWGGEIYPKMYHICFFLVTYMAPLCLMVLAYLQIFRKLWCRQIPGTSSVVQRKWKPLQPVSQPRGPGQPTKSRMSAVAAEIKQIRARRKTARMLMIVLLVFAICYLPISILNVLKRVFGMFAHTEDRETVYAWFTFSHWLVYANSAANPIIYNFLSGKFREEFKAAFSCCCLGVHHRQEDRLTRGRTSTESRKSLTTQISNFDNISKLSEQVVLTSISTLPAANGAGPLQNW
The experiment in a line: Measurement of orexin type 2 receptor agonist activity (calcium fluorescence, Fluo-4 AM, FDSS). As to conditions: compound at 3 μM; CHO cells forcibly expressing human OX2 receptor; DMSO = 0%, 10 nM orexin A (human) = 100%. Type of test: cell-based. An outline of the steps: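 Agonist response is expressed as % of the fluorescence change given by 10 nM human orexin A, with DMSO as 0%, read over 1 min 40 s on FDSS after compound addition. Cells: stable human OX2 (1-444) CHO-K1 clones, dye-loaded with Fluo-4 AM plus probenecid in HEPES-buffered HBSS with 0.1% BSA.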
In the case of `Cc1cnc(C2CC(N3CC[C@@H](NS(C)(=O)=O)C(F)(F)CC3)=NO2)c(-c2c(F)cccc2F)c1` (stereo partly drawn) [Example 28, N-[(4R)-1-{5-[3-(2,6-difluorophenyl)-5-methylpyridin-2-yl]-4,5-dihydro-1,2-oxazol-3-yl}-5,5-difluoroazepan-4-yl]methanesulfonamide], the “OX2R agonist activity (3 μM, %)” value worked out at 93%.

Take `CS(=O)(=O)N[C@@H]1CN(C2=NOC(CF)(c3ncccc3-c3c(F)cccc3F)C2)CC1(F)F` (stereo partly drawn) [Example 150, N-[(3R)-1-{5-[3-(2,6-difluorophenyl)pyridin-2-yl]-5-(fluoromethyl)-4,5-dihydro-1,2-oxazol-3-yl}-4,4-difluoropyrrolidin-3-yl]methanesulfonamide]: the “OX2R agonist activity (3 μM, %)” value was found to be 95%.

Consider `Cc1cnc([C@@H]2CC(N3CC[C@H](NS(=O)(=O)C(C)F)C3)=NO2)c(-c2c(F)cccc2F)c1` (stereo partly drawn) [Example 99, N-[(3S)-1-{(5S)-5-[3-(2,6-difluorophenyl)-5-methylpyridin-2-yl]-4,5-dihydro-1,2-oxazol-3-yl}pyrrolidin-3-yl]-1-fluoroethane-1-sulfonamide], for which the “OX2R agonist activity (3 μM, %)” value amounted to 101%.

For the molecule `Cc1cnc(C2CC([C@H]3CC[C@@H](NS(C)(=O)=O)CC3)=NO2)c(-c2c(F)cc(F)cc2F)c1` (some centres unmarked) [Example 24, N-[(1s,4s)-4-{5-[5-methyl-3-(2,4,6-trifluorophenyl)pyridin-2-yl]-4,5-dihydro-1,2-oxazol-3-yl}cyclohexyl]methanesulfonamide], the “OX2R agonist activity (3 μM, %)” value was found to be 20%.

On to `Cc1cnc([C@@H]2CC(N3CC[C@H](NS(C)(=O)=O)C3)=NO2)c(-c2c(F)cc(F)cc2F)c1` [Example 45, N-[(3S)-1-{(5S)-5-[5-methyl-3-(2,4,6-trifluorophenyl)pyridin-2-yl]-4,5-dihydro-1,2-oxazol-3-yl}pyrrolidin-3-yl]methanesulfonamide], for which the “OX2R agonist activity (3 μM, %)” value came out at 101%.

Take `Cc1cnc([C@@H]2CC(O[C@H]3C[C@H](NS(C)(=O)=O)C3)=NO2)c(-c2c(F)cc(F)cc2F)c1` [Example 74, N-[(1s,3r)-3-({(5S)-5-[5-methyl-3-(2,4,6-trifluorophenyl)pyridin-2-yl]-4,5-dihydro-1,2-oxazol-3-yl}oxy)cyclobutyl]methanesulfonamide]: the “OX2R agonist activity (3 μM, %)” value is listed as 58%.

Turning to `Cc1cnc(C2(CF)CC(N3C[C@@H](NS(C)(=O)=O)C(F)(F)C3)=NO2)c(-c2c(F)cccc2F)n1` (stereo partly drawn) [Example 104, N-[(3R)-1-{5-[3-(2,6-difluorophenyl)-5-methylpyrazin-2-yl]-5-(fluoromethyl)-4,5-dihydro-1,2-oxazol-3-yl}-4,4-difluoropyrrolidin-3-yl]methanesulfonamide], the “OX2R agonist activity (3 μM, %)” value is listed as 102%.

`Cc1cnc([C@@H]2CC(N3CC[C@H](NS(C)(=O)=O)C3)=NO2)c(-c2c(F)cccc2F)c1` [Example 29, N-[(3S)-1-{(5S)-5-[3-(2,6-difluorophenyl)-5-methylpyridin-2-yl]-4,5-dihydro-1,2-oxazol-3-yl}pyrrolidin-3-yl]methanesulfonamide]: the “OX2R agonist activity (3 μM, %)” value came to 96%.

As for `O=S(=O)(CF)N[C@@H]1CN(C2=NOC(c3c(F)cc(F)cc3-c3c(F)cccc3F)C2)CC1(F)F` (stereo partly drawn) [Example 169, N-{(3R)-4,4-difluoro-1-[5-(2′,3,5,6′-tetrafluoro[1,1′-biphenyl]-2-yl)-4,5-dihydro-1,2-oxazol-3-yl]pyrrolidin-3-yl}-1-fluoromethanesulfonamide], the “OX2R agonist activity (3 μM, %)” value turned out to be 98%.

Consider `CS(=O)(=O)N[C@@H]1CN(C2=NOC(c3ncc(Cl)cc3-c3c(F)cccc3F)C2)C[C@@H]1F` (stereo partly drawn) [Example 80, N-[(3R,4S)-1-{5-[5-chloro-3-(2,6-difluorophenyl)pyridin-2-yl]-4,5-dihydro-1,2-oxazol-3-yl}-4-fluoropyrrolidin-3-yl]methanesulfonamide], for which the “OX2R agonist activity (3 μM, %)” value stood at 97%.

For the molecule `Cc1cnc(C2(C)CC(N3C[C@H](F)[C@H](NS(C)(=O)=O)C3)=NO2)c(-c2c(F)cccc2F)c1` (stereo partly drawn) [Example 96, N-[(3R,4S)-1-{5-[3-(2,6-difluorophenyl)-5-methylpyridin-2-yl]-5-methyl-4,5-dihydro-1,2-oxazol-3-yl}-4-fluoropyrrolidin-3-yl]methanesulfonamide], the “OX2R agonist activity (3 μM, %)” value came out at 99%.

Turning to `CS(=O)(=O)N[C@@H]1CN(C2=NOC(c3ccc(F)cc3-c3c(F)cccc3F)C2)CC1(F)F` (stereo partly drawn) [Example 111, N-{(3R)-4,4-difluoro-1-[5-(2′,5,6′-trifluoro[1,1′-biphenyl]-2-yl)-4,5-dihydro-1,2-oxazol-3-yl]pyrrolidin-3-yl}methanesulfonamide], the “OX2R agonist activity (3 μM, %)” value amounted to 102%.

For `O=S(=O)(CF)N[C@@H]1CN(C2=NOC(c3c(F)cc(F)c(F)c3-c3c(F)cccc3F)C2)CC1(F)F` (stereo partly drawn) [Example 174, N-{(3R)-4,4-difluoro-1-[5-(2′,3,5,6,6′-pentafluoro[1,1′-biphenyl]-2-yl)-4,5-dihydro-1,2-oxazol-3-yl]pyrrolidin-3-yl}-1-fluoromethanesulfonamide], the “OX2R agonist activity (3 μM, %)” value is listed as 107%.

`Cc1cnc([C@@H]2CC(N3C[C@@H](NS(=O)(=O)C4CC4)C(F)(F)C3)=NO2)c(-c2c(F)cc(F)cc2F)c1` [Example 55, N-[(3R)-4,4-difluoro-1-{(5S)-5-[5-methyl-3-(2,4,6-trifluorophenyl)pyridin-2-yl]-4,5-dihydro-1,2-oxazol-3-yl}pyrrolidin-3-yl]cyclopropanesulfonamide]: the “OX2R agonist activity (3 μM, %)” value is given as 104%.

In the case of `CC1(c2ncc(F)cc2-c2c(F)cccc2F)CC(N2C[C@H](F)[C@H](NS(C)(=O)=O)C2)=NO1` (stereo partly drawn) [Example 118, N-[(3R,4S)-1-{5-[3-(2,6-difluorophenyl)-5-fluoropyridin-2-yl]-5-methyl-4,5-dihydro-1,2-oxazol-3-yl}-4-fluoropyrrolidin-3-yl]methanesulfonamide], the “OX2R agonist activity (3 μM, %)” value came to 100%.

For `CS(=O)(=O)N[C@@H]1CN(C2=NOC(c3ncc(C4CC4)cc3-c3c(F)cc(F)cc3F)C2)CC1(F)F` (stereo partly drawn) [Example 18, N-[(3R)-1-{5-[5-cyclopropyl-3-(2,4,6-trifluorophenyl)pyridin-2-yl]-4,5-dihydro-1,2-oxazol-3-yl}-4,4-difluoropyrrolidin-3-yl]methanesulfonamide], the “OX2R agonist activity (3 μM, %)” value is recorded as 103%.

In the case of `Cc1cnc([C@@H]2CC(N3CC(F)(F)C(C)(NS(C)(=O)=O)C3)=NO2)c(-c2c(F)cc(F)cc2F)c1` (stereo partly drawn) [Example 64, N-(4,4-difluoro-3-methyl-1-{(5S)-5-[5-methyl-3-(2,4,6-trifluorophenyl)pyridin-2-yl]-4,5-dihydro-1,2-oxazol-3-yl}pyrrolidin-3-yl)methanesulfonamide], the “OX2R agonist activity (3 μM, %)” value was 100%.

For the molecule `Cc1cnc([C@@H]2CC(N3C[C@@H](F)[C@H](NS(C)(=O)=O)C3)=NO2)c(-c2c(F)cccc2F)c1` [Example 44, N-[(3R,4R)-1-{(5S)-5-[3-(2,6-difluorophenyl)-5-methylpyridin-2-yl]-4,5-dihydro-1,2-oxazol-3-yl}-4-fluoropyrrolidin-3-yl]methanesulfonamide], the “OX2R agonist activity (3 μM, %)” value is recorded as 95%.

Consider `O=S(=O)(CF)N[C@@H]1CN(C2=NOC(CF)(c3ncc(F)cc3-c3c(F)cc(F)cc3F)C2)C[C@@H]1F` (stereo partly drawn) [Example 163, 1-fluoro-N-[(3R,4S)-4-fluoro-1-{5-(fluoromethyl)-5-[5-fluoro-3-(2,4,6-trifluorophenyl)pyridin-2-yl]-4,5-dihydro-1,2-oxazol-3-yl}pyrrolidin-3-yl]methanesulfonamide], for which the “OX2R agonist activity (3 μM, %)” value came to 98%.

For `CN(C)S(=O)(=O)N[C@@H]1CN(C2=NOC(c3ncc(Cl)cc3-c3c(F)cccc3F)C2)C[C@@H]1F` (stereo partly drawn) [Example 121, N′-[(3R,4S)-1-{5-[5-chloro-3-(2,6-difluorophenyl)pyridin-2-yl]-4,5-dihydro-1,2-oxazol-3-yl}-4-fluoropyrrolidin-3-yl]-N,N-dimethylsulfuric diamide], the “OX2R agonist activity (3 μM, %)” value amounted to 98%.

With `Cc1cnc(C2(CO)CC(N3C[C@@H](NS(C)(=O)=O)C(F)(F)C3)=NO2)c(-c2c(F)cc(F)cc2F)c1` (stereo partly drawn) [Example 16, N-[(3R)-4,4-difluoro-1-{5-(hydroxymethyl)-5-[5-methyl-3-(2,4,6-trifluorophenyl)pyridin-2-yl]-4,5-dihydro-1,2-oxazol-3-yl}pyrrolidin-3-yl]methanesulfonamide], the “OX2R agonist activity (3 μM, %)” value turned out to be 99%.

In the case of `CCC1(c2ncc(F)cc2-c2c(F)cccc2F)CC(N2C[C@@H](NS(C)(=O)=O)C(F)(F)C2)=NO1` (stereo partly drawn) [Example 130, N-[(3R)-1-{5-[3-(2,6-difluorophenyl)-5-fluoropyridin-2-yl]-5-ethyl-4,5-dihydro-1,2-oxazol-3-yl}-4,4-difluoropyrrolidin-3-yl]methanesulfonamide], the “OX2R agonist activity (3 μM, %)” value worked out at 104%.

`CN(C)S(=O)(=O)N[C@H]1CCN(C2=NOC(c3ncccc3-c3c(F)cc(F)cc3F)C2)C1` (stereo partly drawn) [Example 35, N,N-dimethyl-N′-[(3S)-1-{5-[3-(2,4,6-trifluorophenyl)pyridin-2-yl]-4,5-dihydro-1,2-oxazol-3-yl}pyrrolidin-3-yl]sulfuric diamide]: the “OX2R agonist activity (3 μM, %)” value is on record as 92%.
